Results taken from patent US20130324412A1, “N-ALKOXYAMIDES OF 6-(SUBSTITUTED PHENYL)-4-AMINOPICOLINATES AND 2-(SUBSTITUTED PHENYL)-6-AMINO-4-PYRIMIDINECARBOXYLATES AND THEIR USE AS SELECTIVE HERBICIDES FOR CROPS” (DOW AGROSCIENCES LLC, priority 2009, published 2013).

Key:
Type in all cases: in vivo
[1] = test system: sicklepod (Casia obtusifolia); experiment: Postemergence herbicidal activity in corn, sicklepod; settings: corn test, visual rating after 21 d, probit analysis, dose to kill or control 80 percent
Experimental: (§1) Seeds of corn and the desired weed species were planted in Sun Gro MetroMix 360 planting mixture, which typically has a pH of 6.0 to 6.8 and an organic matter content of about 30 percent, in plastic pots with a surface area of 95 cm^2. When required to ensure good germination and healthy plants, a fungicide treatment and/or other chemical or physical treatment was applied. The plants were grown for 7-21 d in a greenhouse with an approximate 15-h photoperiod which was maintained at about 23-29° C. during the day and 22-28° C. during the night. Nutrients and water were added on a regular basis and supplemental lighting was provided with overhead metal halide 1000-Watt lamps as necessary. The corn plants were utilized for testing when they reached the second true leaf stage. The weed species were utilized at the first or second true leaf stage.
(§2) A weighed amount, determined by the highest rate to be tested, of each test compound was dissolved in 4 mL of a 97:3 v/v mixture of acetone and DMSO to obtain concentrated stock solutions. […] The concentrated stock solutions obtained were diluted with 20 mL of an aqueous mixture containing acetone, water, isopropyl alcohol, DMSO, Atplus 411F crop oil concentrate, and Triton X-155 surfactant in a 48.5:39:10:1.5:1.0:0.02 v/v ratio to obtain spray solutions containing the highest application rates. […]
(§3) The treated plants and control plants were placed in a greenhouse as described above and watered by sub-irrigation to prevent wash-off of the test compounds. After 21 d, the condition of the test plants as compared with that of the untreated plants was determined visually and scored on a scale of 0 to 100 percent where 0 corresponds to no injury and 100 corresponds to complete kill. […]

[2] = test system: velvetleaf (Abutilon theophrasti); experiment: General postemergence herbicidal activity, velvetleaf; settings: post-emergence, 336 h, 70 g ai/ha, postemergence, after 14 d, 0 = no injury, 100 = complete kill, read-out: ABUTH % Visual Injury
Summary of the method: (§4)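 Greenhouse plants at first to second true leaf stage sprayed overhead at 187 L/ha in acetone/DMSO with crop oil concentrate and surfactant, at a high rate plus ½× to 1/16× serial dilutions. Injury rated visually after 14 d against solvent-blank controls, 0 (none) to 100% (complete kill).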

corn (Zea mays) [3] = experiment: Postemergence herbicidal activity in corn, crop; settings: visual rating after 21 d, probit analysis, dose to kill or control 20 percent
Experimental: as §1, §2, §3

[4] = test system: lambsquarters (Chenopodium album); experiment: General postemergence herbicidal activity, lambsquarters; settings: post-emergence, 336 h, 70 g ai/ha, postemergence, after 14 d, 0 = no injury, 100 = complete kill, read-out: CHEAL % Visual Injury
Summary of the method: as §4

corn (Zea mays) [5] = experiment: General postemergence herbicidal activity, corn; settings: post-emergence, 336 h, 70 g ai/ha, postemergence, after 14 d, 0 = no injury, 100 = complete kill, read-out: ZEAMX % Visual Injury
Summary of the method: as §4

**Q.** What does the source list for COc1c(Cl)ccc(-c2cc(N)c(Cl)c(C(=O)NOCC(C)C)n2)c1F [Compound 1, 4-amino-3-chloro-6-(4-chloro-2-fluoro-3-methoxyphenyl)-N-(2-methylpropoxy)picolinamide]?
**A.** CASOB GR80 [1]: 8.75 g ai/ha; pest or weed control at 70 g/ha [2]: 100%; ZEAMX GR20 (corn (Zea mays) [3]): >35 g ai/ha; pest or weed control at 70 g/ha [4]: 100%; plant injury at 70 g/ha (corn (Zea mays) [5]): 0%

**Q.** What does the source list for CONC(=O)c1nc(-c2ccc(Cl)c(OC)c2F)cc(N)c1Cl [Compound 2, 4-Amino-3-chloro-6-(4-chloro-2-fluoro-3-methoxyphenyl)-N-methoxypicolinamide]?
**A.** CASOB GR80 [1]: 17 g ai/ha; pest or weed control at 70 g/ha [2]: 100%; ZEAMX GR20 (corn (Zea mays) [3]): >35 g ai/ha; pest or weed control at 70 g/ha [4]: 100%; plant injury at 70 g/ha (corn (Zea mays) [5]): 10%
